In brackets after ≈: the same amount, converted by molar mass. Several values for one entry are separate records, joined by “and”; a condition that tells them apart may be missing. Equal values may be shown once. Read-outs that look alike come from different tables or passages of the source.
What was measured:
[1] = test system: Mycobacterium tuberculosis H37Rv; assay: Microplate Alamar Blue assay (MABA) MIC, M. tuberculosis; format: cell-based
Text: (§1) Minimal inhibitory concentrations (MICs) in Mycobacterium tuberculosis H37Rv and Mycobacterium avium ATCC 25291 were quantified using microplate Alamar Blue assays as described (MABA; [Collins, L. & Franzblau, S. (1997) Microplate Alamar Blue assay versus BACTEC 460 system for high-throughput screening of compounds against Mycobacterium tuberculosis and Mycobacterium avium. Antimicrob. Agents Chemother. 41, 1004-1009]).

[2] = test system: rifampin-resistant mutants, derivatives of M. smegmatis ATCC19420; assay: MICs in rifampin-resistant mutants (cross-resistance levels); format: cell-based, Mycobacterium smegmatis
Text: (§2) MICs in Mycobacterium smegmatis ATCC 19420 and Mycobacterium smegmatis ATCC 19420 derivatives were quantified using broth microdilution assays as described [Clinical and Laboratory Standards Institute (CLSI/NCCLS) (2009) Methods for Dilution Antimicrobial Susceptibility Tests for Bacteria That Grow Aerobically; Approved Standard, Eighth Edition. CLIS Document M07-A8 (CLIS, Wayne Pa.)].

[3] = test system: Mycobacterium smegmatis ATCC 19420; assay: Spontaneous resistance rate, fluctuation assays; format: cell-based; details: 96 h fluctuation assays, M. smegmatis ATCC19420
Protocol: Resistance rates were determined using fluctuation assays [Luria, S., Delbrück, M. (1943) Genetics 28, 491-511.]. […] (at least 3 independent determinations for each concentration of each test compound). Resistance rates and 95% confidence intervals were calculated using the Ma-Sandri-Sarkar Maximum Likelihood Estimator (MSS-MLE [Ma, W., Sandri, GvH., Sarkar, S. (1992.) J. Appl. Probab. 29, 255-267; Sarkar, S., Ma, W., Sandri, GvH. (1992) Genetica 85, 173-179]) as implemented on the Fluctuation Analysis Calculator (FALCOR; www.keshavsingh.org/protocols/FALCOR.html [Hall, B., Ma, C., Liang, P., Singh, K (2009) Bioinformatics 25, 1564-1565]). Sampling correction was performed as in [Stewart, F., Gordon, D., Levin, B. (1990) Genetics 124, 175-185; Jones, M. (1993) Mutat. Res. 292, 187-189].

[4] = biological target: Mycobacterium tuberculosis RNA polymerase (Mycobacterium tuberculosis, UniProt P9WGY7+P9WGY9); assay: Run-off transcription assay with Mycobacterium tuberculosis RNA polymerase (radiochemical); format: biochemical
Protocol: Run-off transcription assays with Mycobacterium tuberculosis RNA polymerase were performed using reaction mixtures containing (10 μl): 0-100 μM test compound, 75 nM Mycobacterium tuberculosis RNA polymerase core enzyme, 300 nM Mycobacterium tuberculosis σ^A, 20 nM 130 bp DNA fragment containing positions −100 to −1 of the bacteriophage […] N25 promoter followed by positions +1 to +30 of the lacUV5-15 promoter of [Mukhopadhyay, J., Kapanidis, A., Mekler, V., Kortkhonjia, E., Ebright, Y., Ebright, R. (2001) Cell 106, 453-463], 25 nM [alpha-^32P]UTP (600 Bq/pmol) for an initial 2 min at 37° C. and 100 μM [alpha-^32P]UTP (6 Bq/pmol) for a subsequent 5 min at 37° C., 100 μM ATP, 100 μM GTP, 100 μM UTP, 100 μM CTP, 40 mM Tris-HCl, pH 8.0, 80 mM NaCl, 5 mM MgCl2, 2.5 mM DTT, and 12.7% glycerol. Reactions were terminated by addition of […] 80% formamide, 10 mM EDTA, 0.04% bromophenol blue, and 0.04% xylene cyanol, followed by heating for 5 min at 90° C. Reaction products were resolved by 15% urea-PAGE, and quantified using a storage-phosphor scanner.

[5] = test system: AAP1-resistant mutants, derivatives of M. smegmatis ATCC19420; assay: MICs in AAP1-resistant mutants (resistance and cross-resistance levels); format: cell-based, Mycobacterium smegmatis; details: for cross-resistance of AAP1-resistant mutants to the compound: MICs in AAP1-resistant mutants
[6] = test system: Mycobacterium smegmatis ATCC 19420; assay: Broth microdilution MIC, M. smegmatis; format: cell-based; details: Mycolicibacterium smegmatis
Text: as §2

[7] = test system: Vero E6 ATCC CRL1586 cells; assay: Mammalian-cell cytotoxicity, minimal cytotoxic concentration (CellTiter96); format: cell-based
Protocol: Minimal cytotoxic concentrations (MCCs) against mammalian cells in culture were determined using Vero E6 ATCC CRL1586 cells and the CellTiter96 assay kit (Promega, Inc.). […]

[8] = test system: Mycobacterium smegmatis, Mycobacterium tuberculosis, and Mycobacterium avium; assay: organism not typed; format: cell-based; details: read-out: MICs, inhibition of mycobacterial growth
[9] = test system: Mycobacterium avium ATCC 25291; assay: Microplate Alamar Blue assay (MABA) MIC, M. avium; format: cell-based; details: ATCC25291, M. avium ATCC 25291
Text: as §1

[10] = Inhibition of mycobacterial RNA polymerase (IC50s), radiochemical transcription assays, M. tuberculosis RNA polymerase
[11] = read-out: MIC Mycobacterium tuberculosis H37Rv
[12] = ATCC19420, M. smegmatis ATCC 19420, read-out: MIC Mycobacterium smegmatis ATCC 19420
[13] = IC50 Mycobacterium tuberculosis RNA polymerase

Sequence of Mycobacterium tuberculosis RNA polymerase (P9WGZ1 whole entry, the tested form may be a part): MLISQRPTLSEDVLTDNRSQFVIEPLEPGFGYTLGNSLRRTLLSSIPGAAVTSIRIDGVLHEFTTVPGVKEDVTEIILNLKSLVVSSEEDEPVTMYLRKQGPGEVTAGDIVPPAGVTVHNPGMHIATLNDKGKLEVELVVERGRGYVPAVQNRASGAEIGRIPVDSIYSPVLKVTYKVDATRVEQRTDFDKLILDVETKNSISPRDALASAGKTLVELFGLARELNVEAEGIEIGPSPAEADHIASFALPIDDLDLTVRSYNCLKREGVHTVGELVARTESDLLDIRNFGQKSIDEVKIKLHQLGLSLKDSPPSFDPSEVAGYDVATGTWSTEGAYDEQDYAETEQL
Sequence of Mycobacterium tuberculosis RNA polymerase (P9WGY5 whole entry, further chain, the tested form may be a part): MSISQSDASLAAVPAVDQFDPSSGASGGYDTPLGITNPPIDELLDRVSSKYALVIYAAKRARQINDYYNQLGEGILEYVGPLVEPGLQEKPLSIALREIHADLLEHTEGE
Sequence of Mycobacterium tuberculosis RNA polymerase (P9WGY9 whole entry, the tested form may be a part): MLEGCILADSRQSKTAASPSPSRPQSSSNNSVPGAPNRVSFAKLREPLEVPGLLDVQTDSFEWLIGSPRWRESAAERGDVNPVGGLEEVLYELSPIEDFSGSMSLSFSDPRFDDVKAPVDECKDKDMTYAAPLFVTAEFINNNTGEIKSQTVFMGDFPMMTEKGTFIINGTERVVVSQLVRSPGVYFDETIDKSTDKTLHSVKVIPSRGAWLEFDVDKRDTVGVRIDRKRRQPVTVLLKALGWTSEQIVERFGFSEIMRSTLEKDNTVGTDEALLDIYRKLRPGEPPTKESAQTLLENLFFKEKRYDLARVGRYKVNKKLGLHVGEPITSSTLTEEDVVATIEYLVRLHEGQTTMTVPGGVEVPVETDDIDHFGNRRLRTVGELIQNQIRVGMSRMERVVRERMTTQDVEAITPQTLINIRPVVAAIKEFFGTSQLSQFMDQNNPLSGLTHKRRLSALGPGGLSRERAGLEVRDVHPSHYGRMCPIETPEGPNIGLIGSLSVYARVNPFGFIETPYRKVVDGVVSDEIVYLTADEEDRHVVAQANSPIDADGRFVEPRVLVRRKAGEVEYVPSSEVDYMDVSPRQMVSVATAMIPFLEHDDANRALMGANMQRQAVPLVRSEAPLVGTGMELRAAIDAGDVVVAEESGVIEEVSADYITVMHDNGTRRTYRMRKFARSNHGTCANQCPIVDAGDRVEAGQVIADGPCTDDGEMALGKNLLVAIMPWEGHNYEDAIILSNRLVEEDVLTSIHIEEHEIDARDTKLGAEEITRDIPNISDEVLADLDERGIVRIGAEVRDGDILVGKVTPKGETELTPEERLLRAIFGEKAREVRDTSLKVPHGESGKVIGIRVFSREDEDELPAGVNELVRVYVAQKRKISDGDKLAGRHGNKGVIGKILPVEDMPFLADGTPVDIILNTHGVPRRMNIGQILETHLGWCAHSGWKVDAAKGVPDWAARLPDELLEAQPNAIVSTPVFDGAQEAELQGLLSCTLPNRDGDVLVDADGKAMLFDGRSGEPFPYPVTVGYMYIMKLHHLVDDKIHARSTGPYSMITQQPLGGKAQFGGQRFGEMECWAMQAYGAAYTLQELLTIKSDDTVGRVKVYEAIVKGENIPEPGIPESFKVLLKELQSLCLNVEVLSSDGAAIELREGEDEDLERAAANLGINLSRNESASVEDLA
Sequence of Mycobacterium tuberculosis RNA polymerase (P9WGI1 whole entry, further chain, the tested form may be a part): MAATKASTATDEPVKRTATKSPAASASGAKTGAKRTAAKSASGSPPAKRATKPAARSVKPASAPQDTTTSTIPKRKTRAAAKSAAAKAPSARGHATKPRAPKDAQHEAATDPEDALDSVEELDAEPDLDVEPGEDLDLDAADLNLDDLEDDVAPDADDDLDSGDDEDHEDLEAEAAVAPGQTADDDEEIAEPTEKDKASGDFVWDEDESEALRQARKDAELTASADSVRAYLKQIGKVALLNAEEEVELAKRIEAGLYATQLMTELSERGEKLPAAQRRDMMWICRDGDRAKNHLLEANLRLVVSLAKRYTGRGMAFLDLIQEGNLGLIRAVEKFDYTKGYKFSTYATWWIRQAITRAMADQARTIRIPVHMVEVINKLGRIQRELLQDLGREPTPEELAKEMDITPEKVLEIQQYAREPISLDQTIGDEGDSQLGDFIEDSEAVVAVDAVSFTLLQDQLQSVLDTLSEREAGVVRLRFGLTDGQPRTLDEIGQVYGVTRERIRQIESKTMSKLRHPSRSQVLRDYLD
Sequence of Mycobacterium tuberculosis RNA polymerase (P9WGY7 whole entry, the tested form may be a part): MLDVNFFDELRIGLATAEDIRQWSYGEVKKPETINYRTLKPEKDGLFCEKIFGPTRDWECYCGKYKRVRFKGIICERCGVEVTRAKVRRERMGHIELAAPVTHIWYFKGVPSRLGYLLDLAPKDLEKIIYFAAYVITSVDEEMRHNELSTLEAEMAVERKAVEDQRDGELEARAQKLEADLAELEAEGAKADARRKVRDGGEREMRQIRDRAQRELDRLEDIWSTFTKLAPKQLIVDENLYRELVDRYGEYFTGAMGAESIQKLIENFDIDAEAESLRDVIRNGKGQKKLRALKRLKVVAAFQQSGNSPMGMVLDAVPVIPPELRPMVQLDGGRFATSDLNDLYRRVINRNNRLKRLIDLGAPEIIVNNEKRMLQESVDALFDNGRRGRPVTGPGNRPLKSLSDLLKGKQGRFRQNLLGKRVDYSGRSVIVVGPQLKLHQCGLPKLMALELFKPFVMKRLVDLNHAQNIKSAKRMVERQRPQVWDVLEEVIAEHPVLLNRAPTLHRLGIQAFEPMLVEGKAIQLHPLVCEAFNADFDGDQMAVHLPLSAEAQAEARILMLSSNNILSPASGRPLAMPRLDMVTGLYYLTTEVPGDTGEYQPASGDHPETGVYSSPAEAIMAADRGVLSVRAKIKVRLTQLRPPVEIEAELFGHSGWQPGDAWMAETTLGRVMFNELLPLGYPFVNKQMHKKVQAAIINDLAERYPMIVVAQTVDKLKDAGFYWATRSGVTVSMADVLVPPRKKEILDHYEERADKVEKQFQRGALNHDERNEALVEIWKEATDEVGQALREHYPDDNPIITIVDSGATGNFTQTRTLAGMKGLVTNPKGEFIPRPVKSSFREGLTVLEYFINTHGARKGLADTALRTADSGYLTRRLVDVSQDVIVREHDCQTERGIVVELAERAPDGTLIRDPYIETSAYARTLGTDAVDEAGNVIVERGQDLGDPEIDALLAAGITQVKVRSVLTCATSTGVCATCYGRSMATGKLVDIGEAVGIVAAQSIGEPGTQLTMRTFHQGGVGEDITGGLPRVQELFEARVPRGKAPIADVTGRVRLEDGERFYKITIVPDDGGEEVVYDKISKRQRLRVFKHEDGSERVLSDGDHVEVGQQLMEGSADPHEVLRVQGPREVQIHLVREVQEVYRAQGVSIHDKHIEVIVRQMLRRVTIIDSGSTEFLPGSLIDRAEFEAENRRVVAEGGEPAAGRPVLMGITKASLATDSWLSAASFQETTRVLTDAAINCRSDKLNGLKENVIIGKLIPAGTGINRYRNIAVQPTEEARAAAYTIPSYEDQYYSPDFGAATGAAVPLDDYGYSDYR

Cc1ccccc1NC(=O)C(Cc1ccccc1)NC(=O)c1ccccc1 (racemic) [AAP1, Nα-benzoyl-N-(2-methylphenyl)-D/L-phenylalaninamide] was tested, and the MIC ([1]; MABA-MIC assays, read-out: Inhibition of mycobacterial growth in culture (MICs)) was 6.25 µg/mL (≈ 17.4 µM), the “cross-resistance of rifampin-resistant mutants to the compound” value [2] was “No rifampin-resistant mutant was found to exhibit cross-resistance” and the “hypersensitivity of rifampin-resistant mutants to the compound” value [2] was “One rifampin-resistant mutant was found to be hypersensitive”. For the same compound, the “spontaneous resistance rate at 2xMIC” value ([3]; 2xMIC) was 5 × 10^−9/generation, the “spontaneous resistance rate at 4xMIC” value ([3]; 4xMIC) was 4 × 10^−9/generation and the “spontaneous resistance rate at 8xMIC” value ([3]; 8xMIC) was 5 × 10^−9/generation. For the same compound, the IC50 [4, 10] was 680 nM, the “resistance of tested AAP1-resistant mutants” value ([5]; all tested AAP1-resistant mutants) was > 60 fold and the MIC ([6]; ATCC19420, broth microdilution assays, M. smegmatis ATCC19420, read-out: Inhibition of mycobacterial growth in culture (MICs)) was 0.39 µg/mL (≈ 1.09 µM). It also gave an MIC ([6]; ATCC19420, read-out: MIC with wild-type rpoB and wild-type rpoC, M. smegmatis ATCC19420 wild type, reference for AAP1-resistant mutants) of 0.78 µg/mL (≈ 2.18 µM).
With O=C(NC(Cc1ccccc1)C(=O)Nc1cc(F)ccc1N1CCNCC1)c1ccccc1F (racemic) [IX-214, 2-fluoro-N-(1-((5-fluoro-2-(piperazin-1-yl)phenyl)amino)-1-oxo-3-phenylpropan-2-yl)benzamide] the MIC [1, 11] was 1.56 µg/mL (≈ 3.36 µM), the “cross-resistance of rifampin-resistant mutants to the compound” value [2] was “No rifampin-resistant mutant was found to exhibit cross-resistance” and the “MCC mammalian cells Vero E6 ATCC CRL1586” value [7] was 7 µg/mL. The “cross-resistance of AAP1-resistant mutants to the compound” value [5] was “cross-resistance”, the MIC [6, 12] was 0.195 µg/mL (≈ 0.42 µM) and the MIC [8] was ≥ 0.073 µg/mL. The MIC [9] was 1.56 µg/mL (≈ 3.36 µM).
Cc1ccccc1NC(=O)C(Cc1ccc(O)cc1)NC(=O)c1ccccc1 (stereo not shown) [I-13, N-(3-(4-hydroxyphenyl)-1-oxo-1-(o-tolylamino)propan-2-yl)benzamide] was tested, and the MIC [1, 11] was 12.5 µg/mL (≈ 33.4 µM), the “cross-resistance of rifampin-resistant mutants to the compound” value [2] was “No rifampin-resistant mutant was found to exhibit cross-resistance” and the “MCC mammalian cells Vero E6 ATCC CRL1586” value [7] was 37 µg/mL. For the same compound, the “cross-resistance of AAP1-resistant mutants to the compound” value [5] was “cross-resistance”, the MIC [6, 12] was 0.195 µg/mL (≈ 0.521 µM) and the MIC [9] was 25 µg/mL (≈ 66.8 µM).
Cc1ccc(Cl)cc1NC(=O)C(Cc1ccccc1)NC(=O)c1ccccc1F (stereo not shown) [IX-55, N-(1-((5-chloro-2-methylphenyl)amino)-1-oxo-3-phenylpropan-2-yl)-2-fluorobenzamide] was tested, and the MIC [1, 11] was 1.56 µg/mL (≈ 3.8 µM), the IC50 [4, 13] was 470 nM and the “MCC mammalian cells Vero E6 ATCC CRL1586” value [7] was 10 µg/mL. The “cross-resistance of AAP1-resistant mutants to the compound” value [5] was “cross-resistance”, the MIC [6, 12] was 0.39 µg/mL (≈ 0.949 µM) and the MIC [9] was 3.12 µg/mL (≈ 7.61 µM).
With COc1ccc(F)cc1NC(=O)C(Cc1ccccc1)NC(=O)c1ccccc1 (stereo not shown) [IX-73, N-(1-((5-fluoro-2-methoxyphenyl)amino)-1-oxo-3-phenylpropan-2-yl)benzamide] the MIC [1, 11] was 1.56 µg/mL (≈ 3.98 µM), the “MCC mammalian cells Vero E6 ATCC CRL1586” value [7] was >100 µg/mL and the “cross-resistance of AAP1-resistant mutants to the compound” value [5] was “cross-resistance”. For the same compound, the MIC [6, 12] was 0.19 µg/mL (≈ 0.484 µM) and the MIC [9] was 0.78 µg/mL (≈ 1.99 µM).
O=C(NC(Cc1ccccc1)C(=O)Nc1ccccc1N1CCNCC1)c1ccccc1F (stereo not shown) [IX-211, 2-fluoro-N-(1-oxo-3-phenyl-1-((2-(piperazin-1-yl)phenyl)amino)-propan-2-yl)benzamide] was tested, and the MIC [1, 11] was 1.56 µg/mL (≈ 3.49 µM), the “MCC mammalian cells Vero E6 ATCC CRL1586” value [7] was 18 µg/mL and the “cross-resistance of AAP1-resistant mutants to the compound” value [5] was “cross-resistance”. It also gave an MIC [6, 12] of 0.09 µg/mL (≈ 0.202 µM) and an MIC [9] of 1.56 µg/mL (≈ 3.49 µM).
For Cc1ccccc1C(=O)NC(Cc1ccccc1)C(=O)Nc1ccccc1N1CCNCC1 (stereo not shown) [IX-212, 2-methyl-N-(1-oxo-3-phenyl-1-((2-(piperazin-1-yl)phenyl)amino)-propan-2-yl)benzamide], the MIC [1, 11] was 1.56 µg/mL (≈ 3.52 µM), the “MCC mammalian cells Vero E6 ATCC CRL1586” value [7] was 15 µg/mL and the “cross-resistance of AAP1-resistant mutants to the compound” value [5] was “cross-resistance”. For the same compound, the MIC [6, 12] was 0.097 µg/mL (≈ 0.219 µM) and the MIC [9] was 1.56 µg/mL (≈ 3.52 µM).
For O=C(NC(Cc1ccccc1)C(=O)Nc1ccccc1N1CCNCC1)c1cccs1 (stereo not shown) [IX-213, N-(1-oxo-3-phenyl-1-((2-(piperazin-1-yl)phenyl)amino)propan-2-yl)thiophene-2-carboxamide], the MIC [1, 11] was 1.56 µg/mL (≈ 3.59 µM), the “MCC mammalian cells Vero E6 ATCC CRL1586” value [7] was 33 µg/mL and the “cross-resistance of AAP1-resistant mutants to the compound” value [5] was “cross-resistance”. For the same compound, the MIC [6, 12] was 0.097 µg/mL (≈ 0.223 µM) and the MIC [9] was 0.78 µg/mL (≈ 1.79 µM).
With O=C(N[C@H](Cc1ccccc1)C(=O)Nc1cc(F)ccc1N1CCNCC1)c1ccccc1F [IX-214a, (R)-2-fluoro-N-(1-((5-fluoro-2-(piperazin-1-yl)phenyl)amino)-1-oxo-3-phenylpropan-2-yl)benzamide] the MIC [1, 11] was 0.78 µg/mL (≈ 1.68 µM), the MIC [6, 12] was 0.073 µg/mL (≈ 0.157 µM) and the MIC [8] was ≥ 0.073 µg/mL. For the same compound, the MIC [9] was < 0.195 µg/mL.
With Cc1ccccc1C(=O)NC(Cc1ccccc1)C(=O)Nc1cc(F)ccc1N1CCNCC1 (stereo not shown) [IX-215, N-(1-((5-fluoro-2-(piperazin-1-yl)phenyl)amino)-1-oxo-3-phenylpropan-2-yl)-2-methylbenzamide] the MIC [1, 11] was 1.56 µg/mL (≈ 3.39 µM), the “cross-resistance of rifampin-resistant mutants to the compound” value [2] was “No rifampin-resistant mutant was found to exhibit cross-resistance” and the IC50 [4, 13] was 140 nM. The “MCC mammalian cells Vero E6 ATCC CRL1586” value [7] was 7 µg/mL, the “cross-resistance of AAP1-resistant mutants to the compound” value [5] was “cross-resistance” and the MIC [6, 12] was 0.19 µg/mL (≈ 0.413 µM). It also gave an MIC [9] of 0.78 µg/mL (≈ 1.69 µM).
In the case of O=C(NC(Cc1ccccc1)C(=O)Nc1cc(F)ccc1N1CCNCC1)c1cccs1 (stereo not shown) [IX-216, N-(1-((5-fluoro-2-(piperazin-1-yl)phenyl)amino)-1-oxo-3-phenylpropan-2-yl)thiophene-2-carboxamide], the MIC [1, 11] is reported as 1.56 µg/mL (≈ 3.45 µM), the “cross-resistance of rifampin-resistant mutants to the compound” value [2] is reported as “No rifampin-resistant mutant was found to exhibit cross-resistance” and the IC50 [4, 13] is reported as 280 nM. For the same compound, the “MCC mammalian cells Vero E6 ATCC CRL1586” value [7] was 11 µg/mL, the “cross-resistance of AAP1-resistant mutants to the compound” value [5] was “cross-resistance” and the MIC [6, 12] was 0.097 µg/mL (≈ 0.214 µM). For the same compound, the MIC [9] was 0.78 µg/mL (≈ 1.72 µM).
For O=C(N[C@H](Cc1ccccc1)C(=O)Nc1cc(Cl)ccc1N1CCNCC1)c1ccccc1F [IX-274a, (R)—N-(1-((5-chloro-2-(piperazin-1-yl)phenyl)amino)-1-oxo-3-phenylpropan-2-yl)-2-fluorobenzamide], the MIC [1, 11] was 0.78 µg/mL (≈ 1.62 µM), the IC50 [4, 13] was 17 nM and the IC50 [4, 10] was ≥ 10 nM and 10 to 74 nM. For the same compound, the MIC [6, 12] was 0.073 µg/mL (≈ 0.152 µM), the MIC [8] was ≥ 0.073 µg/mL and the MIC [9] was 0.39 µg/mL (≈ 0.811 µM).
For Cc1ccccc1C(=O)NC(Cc1ccccc1)C(=O)Nc1cc(Cl)ccc1N1CCNCC1 (stereo not shown) [IX-275, N-(1-((5-chloro-2-(piperazin-1-yl)phenyl)amino)-1-oxo-3-phenyl-propan-2-yl)-2-methylbenzamide], the MIC [1, 11] was 1.56 µg/mL (≈ 3.27 µM), the IC50 [4, 13] was 100 nM and the “MCC mammalian cells Vero E6 ATCC CRL1586” value [7] was 12.5 µg/mL. The “cross-resistance of AAP1-resistant mutants to the compound” value [5] was “cross-resistance”, the MIC [6, 12] was 0.39 µg/mL (≈ 0.818 µM) and the MIC [9] was 0.78 µg/mL (≈ 1.64 µM).

Source: patent US9919998B2, “Antibacterial agents: Nα-aroyl-N-aryl-phenylalaninamides” (priority 2014, dated 2018)
